Experimental data from paper PMC9360399, “Alterations to the broad-spectrum formin inhibitor SMIFH2 modulate potency but not specificity” (Scientific Reports, 2022).
Entries after “also recorded” stand apart in the source; their conditions may differ.

Key:
[1] = molecular target: T1, INF2 (Homo sapiens, UniProt Q27J81); assay: pyrene-actin polymerization assay, INF2-FFC; format: biochemical
T1 construct: UniProt Q27J81-1, aa 469–1249; 6-histidine tag (N); made in house; host or cells: ROSETTA-DE3 E. coli
Description: (§1) Several SMIFH2 analogs are known to retain or lose inhibitory activity against mDia1[18]. We sought to expand this dataset to more extensively characterize structure–activity relationships in the SMIFH2/formin complex. All 17 analogs shown in Fig. 4 were synthesized according to the scheme described in the Experimental Procedures (Fig. 6) and characterized by proton NMR (Fig. S8). Each inhibitor was tested for potential interaction with actin in the absence of formin (Figs. S3, S4). […] This panel of 18 inhibitors was tested against five formin FFC fragments (DIAPH1, DIAPH2, INF2, FMNL3, and FMN2), and the IC50 values were measured (Fig. 4 and Table 1). One notable trend in this dataset is that the lack of specificity, noted above for SMIFH2 (Fig. 3), holds for its analogs: no modifications made to SMIFH2 led to a selective inhibitor, at least among the five formins that were tested.
(§2) Figure 4 Structure activity data for SMIFH2 and 17 analogs tested against five human formins. Each individual data point indicates an IC50 value from a titration of inhibitor in the pyrene-actin assembly assay. Conditions: 2 µM actin (5% pyrene-labeled), 4 µM S. pombe profilin, formin (5 nM DIAPH1-FFC, 5 nM DIAPH2-FFC, 5 nM INF2-FFC, 20–37.5 nM FMN2-FFC, 20 nM FMNL3-FFC), inhibitor with a fixed volume of DMSO. […] Because we cannot reliably measure IC50 values above 40 µM, those points are indicated at the > 40 µM line.
(§3) Assays were carried out as described. Rabbit skeletal muscle actin (5% pyrene labeled) was incubated for 2 min at 25 °C with 200 μM EGTA and 50 μM MgCl2 to convert Ca-actin to Mg-actin. When included in the experiment, a 2:1 molar ratio of profilin was incubated with actin for 2 min at 25 °C before conversion to Mg-actin. Polymerization was initiated by adding polymerization buffer (KMEH, final concentration: 10 mM HEPES, pH 7.0, 1 mM EGTA, 50 mM KCl, 1 mM MgCl2). Prior to mixing KMEH with actin, formins and then the inhibitor in DMSO or DMF was added at ≤ 1% of the total volume. Finally, this mixture was rapidly mixed with Mg-actin, with approximately 10–20 s dead time prior to measurement. Fluorescence was monitored every 15 s using a TECAN F200 Pro with λex = 360 ± 17 nm and λem = 415 ± 10 nm. The same volume of organic solvent (DMSO or DMF) was added to each well regardless of inhibitor concentration.

[2] = system: Drosophila myosin 5; set-up: method as in PMID 33589498; settings: read-out: IC50 actin-induced ATPase activity of Drosophila myosin 5; cited from earlier work
[3] = system: mouse Dia1; set-up: method as in PMID 19942139; settings: reported value; cited from earlier work
[4] = molecular target: T2, FMNL3 (Homo sapiens, UniProt Q8IVF7); assay: pyrene-actin polymerization assay, FMNL3-FFC; format: biochemical
T2 construct: UniProt Q8IVF7-1, aa 481-1028; 6-histidine tag (N); made in house; host or cells: ROSETTA-DE3 E. coli
Description: as §1, §2, §3

[5] = molecular target: DIAPH1 (Homo sapiens, UniProt O60610); assay: pyrene-actin polymerization assay, DIAPH1-FFC; format: biochemical
Description: as §1, §2, §3

[6] = molecular target: T3, FMN2 (Homo sapiens, UniProt Q9NZ56); assay: pyrene-actin polymerization assay, FMN2-FFC; format: biochemical
T3 construct: UniProt Q9NZ56-1, aa 1192-1722; 6-histidine tag (N); made in house; host or cells: ROSETTA-DE3 E. coli
Description: as §1, §2, §3

[7] = molecular target: T4, DIAPH2 (Homo sapiens, UniProt O60879); assay: pyrene-actin polymerization assay, DIAPH2-FFC; format: biochemical
T4 construct: UniProt O60879-2, aa 553–1096; 6-histidine tag (N); made in house; host or cells: ROSETTA-DE3 E. coli
Description: as §1, §2, §3

[8] = system: formin; set-up: method as in PMID 33589498; settings: read-out: IC50 formin/mediated actin interactions; cited from earlier work
[9] = system: human formins; assay: pyrene-actin polymerization assay, panel of human formin FFC fragments; format: biochemical; settings: for inhibitory activity against formins tested (in words): five formin FFC fragments (DIAPH1, DIAPH2, INF2, FMNL3, FMN2); for fold change in potency (IC50) compared with SMIFH2 (1): depending on the formin
Description: Figure 3 SMIFH2 has broad activity across the human formins. For each titration, pyrene fluorescence was monitored for 2 μM actin (5% pyrene-labeled)/ 4 μM S. pombe profilin. […] Increasing concentration of SMIFH2 is indicated by blue traces, with the µM concentration labeled to the right of each plot. The volume of DMSO added was the same for all traces, regardless of SMIFH2 concentration.
To characterize the specificity of SMIFH2, we titrated the inhibitor against each purified formin, controlling for the volume of DMSO for all polymerization reactions (Fig. 3, as indicated by blue traces).
as §1, §3

[10] = solubility in DMSO; format: physicochemical; settings: had to be dissolved in DMF for assays

T4 sequence (O60879 553-1096 isoform O60879-2): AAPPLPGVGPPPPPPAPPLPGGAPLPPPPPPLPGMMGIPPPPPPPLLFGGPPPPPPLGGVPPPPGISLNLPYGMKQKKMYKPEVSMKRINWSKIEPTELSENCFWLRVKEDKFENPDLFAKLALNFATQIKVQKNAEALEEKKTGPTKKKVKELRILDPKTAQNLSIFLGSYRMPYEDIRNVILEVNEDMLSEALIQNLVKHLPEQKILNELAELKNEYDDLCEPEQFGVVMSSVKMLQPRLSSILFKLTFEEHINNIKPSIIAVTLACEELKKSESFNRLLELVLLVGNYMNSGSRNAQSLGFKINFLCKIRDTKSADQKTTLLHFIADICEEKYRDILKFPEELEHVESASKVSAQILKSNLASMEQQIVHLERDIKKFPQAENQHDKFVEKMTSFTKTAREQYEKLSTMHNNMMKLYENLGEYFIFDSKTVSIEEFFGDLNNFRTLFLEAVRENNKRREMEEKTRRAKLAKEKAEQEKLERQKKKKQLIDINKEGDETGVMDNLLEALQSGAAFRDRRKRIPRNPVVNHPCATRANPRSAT
T1 sequence (Q27J81 469-1249): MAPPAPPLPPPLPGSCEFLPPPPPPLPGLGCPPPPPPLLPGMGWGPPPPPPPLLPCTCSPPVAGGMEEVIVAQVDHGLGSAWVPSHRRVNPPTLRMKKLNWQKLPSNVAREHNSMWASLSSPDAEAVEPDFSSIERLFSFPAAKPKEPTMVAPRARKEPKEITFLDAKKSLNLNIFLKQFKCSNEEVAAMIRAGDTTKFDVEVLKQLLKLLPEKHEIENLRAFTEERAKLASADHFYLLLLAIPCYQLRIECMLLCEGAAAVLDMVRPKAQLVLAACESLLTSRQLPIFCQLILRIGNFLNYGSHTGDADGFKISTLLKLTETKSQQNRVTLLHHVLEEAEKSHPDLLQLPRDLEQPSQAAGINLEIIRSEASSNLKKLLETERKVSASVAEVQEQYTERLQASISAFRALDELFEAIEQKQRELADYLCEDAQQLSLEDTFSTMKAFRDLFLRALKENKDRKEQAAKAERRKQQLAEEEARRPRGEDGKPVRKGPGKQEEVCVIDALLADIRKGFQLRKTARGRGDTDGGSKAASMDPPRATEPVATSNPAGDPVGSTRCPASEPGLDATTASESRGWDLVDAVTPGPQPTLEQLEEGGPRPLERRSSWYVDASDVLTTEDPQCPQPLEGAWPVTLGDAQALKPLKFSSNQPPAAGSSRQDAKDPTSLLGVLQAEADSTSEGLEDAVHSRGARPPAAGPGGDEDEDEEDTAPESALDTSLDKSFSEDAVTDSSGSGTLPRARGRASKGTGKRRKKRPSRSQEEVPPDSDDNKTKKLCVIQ
T2 sequence (Q8IVF7 481-1028): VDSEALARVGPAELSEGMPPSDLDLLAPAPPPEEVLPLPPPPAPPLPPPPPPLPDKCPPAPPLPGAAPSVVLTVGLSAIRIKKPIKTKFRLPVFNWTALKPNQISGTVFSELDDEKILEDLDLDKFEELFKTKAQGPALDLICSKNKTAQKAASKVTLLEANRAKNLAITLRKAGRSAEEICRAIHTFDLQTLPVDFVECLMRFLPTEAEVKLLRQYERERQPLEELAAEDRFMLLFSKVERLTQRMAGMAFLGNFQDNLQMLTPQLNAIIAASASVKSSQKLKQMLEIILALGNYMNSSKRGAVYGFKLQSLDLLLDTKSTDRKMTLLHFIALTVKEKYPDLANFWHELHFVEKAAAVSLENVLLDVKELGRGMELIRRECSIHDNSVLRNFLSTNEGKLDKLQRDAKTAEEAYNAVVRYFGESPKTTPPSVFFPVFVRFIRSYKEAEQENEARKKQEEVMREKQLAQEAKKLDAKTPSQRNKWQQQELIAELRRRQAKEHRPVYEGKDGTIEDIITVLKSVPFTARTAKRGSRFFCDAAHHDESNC
DIAPH1, sequence (O60610 769-1222 limits assumed): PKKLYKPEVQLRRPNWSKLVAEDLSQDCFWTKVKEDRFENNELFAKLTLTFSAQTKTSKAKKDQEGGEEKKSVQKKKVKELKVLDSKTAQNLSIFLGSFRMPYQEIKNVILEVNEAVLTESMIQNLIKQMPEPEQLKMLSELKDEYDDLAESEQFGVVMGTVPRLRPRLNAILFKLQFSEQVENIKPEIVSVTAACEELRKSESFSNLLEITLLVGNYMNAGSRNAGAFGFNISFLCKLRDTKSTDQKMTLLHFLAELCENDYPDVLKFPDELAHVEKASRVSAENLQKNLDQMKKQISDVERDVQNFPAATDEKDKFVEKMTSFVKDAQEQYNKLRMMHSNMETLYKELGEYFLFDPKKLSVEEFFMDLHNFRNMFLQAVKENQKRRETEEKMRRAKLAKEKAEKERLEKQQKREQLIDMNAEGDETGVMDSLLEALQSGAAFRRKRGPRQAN
T3 sequence (Q9NZ56 1192-1722): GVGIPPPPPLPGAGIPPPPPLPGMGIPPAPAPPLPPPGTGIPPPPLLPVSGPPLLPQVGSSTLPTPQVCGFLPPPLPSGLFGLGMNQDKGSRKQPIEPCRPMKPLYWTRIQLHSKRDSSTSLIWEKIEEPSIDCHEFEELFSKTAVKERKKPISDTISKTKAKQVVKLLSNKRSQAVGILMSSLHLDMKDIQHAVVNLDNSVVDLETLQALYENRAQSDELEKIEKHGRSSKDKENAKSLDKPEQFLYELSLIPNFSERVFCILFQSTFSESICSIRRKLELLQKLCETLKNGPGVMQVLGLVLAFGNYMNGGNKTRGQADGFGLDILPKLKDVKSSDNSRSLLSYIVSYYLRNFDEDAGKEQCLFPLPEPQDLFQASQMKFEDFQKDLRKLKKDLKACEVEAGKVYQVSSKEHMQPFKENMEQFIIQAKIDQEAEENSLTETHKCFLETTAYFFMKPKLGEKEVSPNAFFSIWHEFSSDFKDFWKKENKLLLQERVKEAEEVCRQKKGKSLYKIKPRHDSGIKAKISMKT

| Compound | IC50 [1] | IC50 [2] | IC50 [3] | IC50 [4] | IC50 [5] | IC50 [6] | IC50 [7] | IC50 [8] | inhibitory activity against formins tested (in words) [9] | fold change in potency (IC50) compared with SMIFH2 (1) [9] | solubility [10] |
| --- | --- | --- | --- | --- | --- | --- | --- | --- | --- | --- | --- |
| O=C1NC(=S)N(c2cccc(Br)c2)C(=O)C1=Cc1ccco1 [Compound 1, 1-(3-bromophenyl)-5-(furan-2-ylmethylene)-2-thioxodihydropyrimidine-4,6(1H,5H)-dione, reference compound] | 10 ± 5 µM | ~2 µM | 15 µM | 21 ± 7 µM | 30 ± 10 µM | 10 ± 3 µM | 6 ± 3 µM | 10 to 20 µM | – | – | – |
| CN1C(=O)C(=Cc2ccco2)C(=O)N(c2cccc(Br)c2)C1=S [Compound 2] | 5 ± 2 µM | – | – | 4 ± 1 µM | 13 ± 3 µM | 14 ± 2 µM | 5 ± 5 µM | – | well tolerated | – | – |
| CCN1C(=O)C(=Cc2ccco2)C(=O)N(c2cccc(Br)c2)C1=S [Compound 3] | > 40 µM | – | – | 40 µM | > 40 µM | > 40 µM | > 40 µM | – | – | – | – |
| O=C1C(=Cc2ccco2)C(=O)N(c2cccc(Br)c2)C(=S)N1c1ccccc1 [Compound 4] | 4 ± 1 µM | – | – | 4 ± 1 µM | 11 ± 7 µM | 9 ± 1 µM | 2.3 ± 1.7 µM | – | well tolerated | 3–fourfold more potent | – |
| O=C1NC(=O)N(c2cccc(Br)c2)C(=O)C1=Cc1ccco1 [Compound 5] | > 40 µM | – | – | > 40 µM | > 40 µM | > 40 µM | > 40 µM | – | complete loss of inhibitory activity | – | – |
| O=C1NC(=S)N(c2cccc(Br)c2)C(=O)C1=Cc1ccc[nH]1 [Compound 6] | > 40 µM | – | – | > 40 µM | > 40 µM | > 40 µM | > 40 µM | – | no detectable inhibitory effect | – | – |
| O=C1NC(=S)N(c2cccc(Br)c2)C(=O)C1=Cc1cccs1 [Compound 7] | > 40 µM | – | – | > 40 µM | > 40 µM | – | > 40 µM | – | no detectable inhibitory effect | – | – |
| O=C1NC(=S)N(c2ccc(Br)cc2)C(=O)C1=Cc1ccco1 [Compound 8] | 7 ± 2 µM | – | – | 6 ± 3 µM | 8 ± 3 µM | 8 ± 4 µM | 3 ± 1 µM | – | maintained or slightly enhanced inhibitory activity | – | – |
| O=C1NC(=S)N(c2ccccc2)C(=O)C1=Cc1ccco1 [Compound 9] | 30 µM | – | – | > 40 µM | > 40 µM | – | 40 µM | – | measurable but weak to minimal activity | – | low solubility; also recorded: poorly soluble in DMSO |
| COc1ccc(N2C(=O)C(=Cc3ccco3)C(=O)NC2=S)cc1 [Compound 10] | 37 ± 16 µM | – | – | 17 ± 6 µM | 27 ± 12 µM | 23 ± 4 µM | 12 ± 8 µM | – | reduced activity | – | – |
| COc1ccc(N2C(=O)C(=Cc3ccc(Br)o3)C(=O)NC2=S)cc1 [Compound 11] | 3 ± 2 µM | – | – | 7 ± 1 µM | 8 ± 2 µM | 10 ± 1 µM | 2 ± 1.4 µM | – | – | – | – |
| COc1ccc(N2C(=O)C(=Cc3ccc(Cl)o3)C(=O)NC2=S)cc1 [Compound 12] | 2 ± 1 µM | – | – | 3 ± 2 µM | 4 ± 1 µM | 5 ± 3 µM | 1 ± 0.2 µM | – | most potent inhibitor | two–ninefold | – |
| COc1ccc(N2C(=O)C(=Cc3cc(Br)co3)C(=O)NC2=S)cc1 [Compound 13] | 6 ± 2 µM | – | – | 4 ± 1 µM | – | – | 3.3 ± 0.2 µM | – | – | – | – |
| O=C1NC(=S)N(c2ccc(Br)cc2)C(=O)C1=Cc1ccc(Cl)o1 [Compound 14] | 8 ± 1 µM | – | – | 10 µM | 14 ± 2 µM | 15 µM | 4 ± 1 µM | – | – | – | – |
| O=C1NC(=S)N(c2cccc(Br)c2)C(=O)C1=Cc1ccc(Cl)o1 [Compound 15] | 4 ± 1 µM | – | – | 7 ± 1 µM | 12 ± 6 µM | 11 ± 4 µM | 4 ± 1 µM | – | well tolerated | – | – |
| O=C1NC(=S)N(c2cccc(Br)c2)C(=O)C1=Cc1ccc(Br)o1 [Compound 16] | 7 ± 3 µM | – | – | 14 ± 5 µM | 30 ± 10 µM | 25 ± 5 µM | 9 ± 1 µM | – | well tolerated | – | – |
| Cc1ccc(C=C2C(=O)NC(=S)N(c3cccc(Br)c3)C2=O)o1 [Compound 17] | > 40 µM | – | – | > 40 µM | > 40 µM | > 40 µM | > 40 µM | – | abolished activity | – | – |
| O=C1NC(=S)N(c2cccc(Br)c2)C(=O)/C1=C/C=C/c1ccco1 [Compound 18] | > 40 µM | – | – | – | – | – | 20 µM | – | modest activity | – | – |
